Reference: a melting point compilation (Tetko et al.; mined from patent text by program, amines drawn as free bases though some values may be those of a salt)

SMILES	melting point [°C]
NS(=O)(=O)c1cc(C(=O)O)cc(SCC(Br)CBr)c1Cc1ccccc1 (centres undefined)	205 to 207
Cc1ccc(NC(=O)c2nc(C)cc(C#N)c2C)nc1	212
C=CCc1ccc2oc(C(=O)OCC)c(C)c2c1O	123
Oc1ccc(-c2c3ccccc3cc3sc4cc(O)ccc4c23)cc1	197 to 199
COC(=O)C(O)C1(O)CCC2C3CCC4=CC(=O)C=CC4(C)C3C(O)CC21C (centres undefined)	171 to 173
O=C(CBr)Nc1ccc(I)cc1C(=O)c1ccccc1Cl	150 to 152
O=C=Nc1ccc2c(c1)C(=O)OC2=O	80 to 82
c1cnc2c(c1)-c1ncccc1C2(Cc1ccncc1)Cc1ccncc1	133 to 137
CC(C)(C)c1ocnc1C=C(O)C(=O)O	153 to 155
COC(=O)c1c(Oc2nc(OC)cc(OC)n2)ccc2ncccc12	160 to 162
COc1ccc2c(c1)C(=O)c1ccc(-c3nnn[nH]3)cc1S2(=O)=O	253
Cc1nc(Cn2nc(C(F)(F)F)cc2C(F)(F)F)ccc1NC(=O)c1cccc(Cl)c1C(=O)N[C@@H](C)CS(C)=O (some centres undefined)	183
CCCCCC(CC(=O)Nc1cc(CCC(=O)O)ccc1C(C)(C)C)c1c(OC)cccc1OC (centres undefined)	52 to 53
FC(F)(F)C1(c2cc(Cl)cc(Cl)c2)CC(c2ccc(-c3cn[nH]c3)c3ccccc23)=NO1 (centres undefined)	117 to 120
Cn1c(Oc2cccc(N=C=S)c2)nc2ccccc21	121 to 124
CC(=O)Nc1ccc2c3c(cccc13)S(=O)(=O)N2CCCN1CC=C(c2ccccc2)CC1	178
CN(C)CCOc1ccc(N(CCN(C)C)c2nccc(-c3ccncc3)n2)cc1	87 to 91
N#CCCCN1C(=O)C(O)(c2cccc(Cl)c2)c2ccccc21 (centres undefined)	124 to 126
CCCCc1ccccc1OCCCOc1cccc2c(=O)cc(C(=O)O)oc12	168
c1ccc2[nH]c(SCc3cn4ccccc4n3)nc2c1	220 to 222
COC1(c2cccc(Sc3ccc4c(c3)C(C)(C)S(=O)(=O)C4(C)C)c2)CCOCC1	133 to 135

SMILES	melting point [°C]
Nc1cccc(-c2ccc(CCN3CCN(C(=O)Cc4ccc(F)cc4)CC3)cc2)n1	143 to 145
CCOC(=O)C1=C(C)NC(C)=C(C(=O)OC(C)C)C1c1cccc2ccccc12 (centres undefined)	167
COc1ccc(N)cc1C12CC3CC(CC(C3)C1)C2	140 to 141
O=C(Nc1ccccc1)NC(Cc1c[nH]c2ccccc12)C(=O)NCc1cc(C(F)(F)F)cc(C(F)(F)F)c1 (centres undefined)	219 to 221
CN(c1ccccc1)c1ncccc1NC(=O)c1ccccc1F	84 to 86
COc1cccc2c1OC(C(C)C)C2=O (centres undefined)	46 to 47
C[C@@H](n1cnn(-c2ccc(OCC(F)(F)C(F)F)cc2)c1=O)[C@@]1(c2ccc(F)cc2F)CO1	116 to 117
C[C@H](O)CCC[C@H](O)CCCCCc1cc(O)cc(O)c1C(=O)O	116 to 118
O=C(NCc1ccccc1Cl)c1cccnc1Oc1ccc(F)cc1F	122 to 124
C=CCc1cc(C(=O)OC)ccc1-c1ccc(OC)c(OC)c1	99 to 103
CC(C)OC(=O)c1cn(Cc2c(F)cccc2F)c2nc(-c3ccc(N)cc3)c(CN(C)Cc3ccccc3)n2c1=O	168 to 170
N#Cc1ccc(C(=O)C(Br)C(Br)c2ccc(C#N)cc2)cc1 (centres undefined)	192 to 193
Nc1cccc(C(=O)Nc2ccc(NNC=O)cc2)c1	177 to 178
O=C(OCc1ccccc1)C(C(=O)OCc1ccccc1)n1cccc1	48.5 to 49
Cc1nccn1CCC(C(N)=O)(c1ccccc1)c1ccccc1	191 to 193
COCCOC(=O)C1=C(C)NC(C)=C(c2nnco2)C1c1cccc(Cl)c1Cl (centres undefined)	190 to 192
C=CCONc1nc(NC=O)nc(Cl)c1NC=O	170 to 181
O=C(O)c1ccc(CCCc2c(CCNS(=O)(=O)Cc3ccc(Cl)c(Cl)c3)n(C(c3ccccc3)c3ccccc3)c3ccc(Cl)cc23)cc1	190
COc1ccc(C=CCCCCCC(=O)O)cc1	42 to 43
Cn1cncc1C(O)(c1ccc([N+](=O)[O-])cc1)c1ccc2c(c1)c(-c1cccc(Cl)c1)cc(=O)n2C (centres undefined)	230
CC(=O)Nc1ccc(-c2nc(=O)c3ccccc3s2)cc1	231 to 232

SMILES	melting point [°C]
NC(=Nc1cccc(CNCCC(=O)Nc2ccc3c(c2)CCN3Cc2cccc3ccccc23)c1)c1cccs1	185 to 187
CNc1ncc2c(-c3cccc(Cl)c3)cc(-c3ccc(C(=O)O)cc3)c(O)c2n1	291 to 296
O=c1[nH]c(COc2ccc(Cl)c(Cl)c2)nc2nccnc12	285 to 287
CC(CN1CC=C(c2ccc(Cl)cc2)CC1)C(O)c1ccccc1 (centres undefined)	103 to 105
O=C(C=Cc1cccc(Br)c1)c1ccc(OC2CCCCO2)cc1 (centres undefined)	166 to 168
CC(C#Cc1ccc(OCc2ccccc2)cc1)N(O)C(N)=O (centres undefined)	154 to 156
CC(C)[C@H]1[C@@H](O)CC(=O)N1c1ccc(C#N)c(Cl)c1	100 to 102
COc1ccc2c(c1)CCC1C2CCC2(C)C1CCC2N(C)CCOCCO (centres undefined)	102
Cc1cccc(Nc2ccccc2C(=O)N(C)O)c1C	70 to 71
CSc1ccc(C(=O)Nc2ccccc2)cc1[N+](=O)[O-]	219 to 222
O=[N+]([O-])c1ccc2c(c1)CCCCN2	73 to 75
COC(=O)C(N)CSCc1ccccc1 (centres undefined)	84 to 87
O=c1c(O)c(-c2ccc[nH]2)oc2ccccc12	201 to 203
N#Cc1ccc(C=O)c(-c2cccs2)c1	114
Cc1cnc2n1-c1cc(Cl)c(Cl)cc1N=C(c1ccc(-n3c(C)nc4cnccc43)cc1)C2	243 to 246
O=C(O)c1cc(-c2ccccc2)c2ccsc2c1	222
CSc1cc2ccc(-c3ccccc3)cc2cc1O	149 to 150
Nc1nnc(SCCCCc2ccccc2)s1	111
COc1ccc(N2CCN(c3c(C)c(C)c4c(c3C)CC(C)(Cn3ccnc3C)O4)CC2)cc1 (centres undefined)	86 to 90

Now from value to compound:

melting point [°C]	SMILES
75 to 76	CCCSc1sc(C(=O)NC)c2c1-c1c(cnn1CC(F)(F)F)CC2
178 to 180	Cc1cc(=O)[nH]c2ccc(OCCCN3CCN(Cc4ccc(F)cc4)CC3)cc12
156 to 159	Cc1ccc2c(c1)Oc1ccc([N+](=O)[O-])cc1C(=O)N2C
117 to 120	CC1(C)OC[C@H](Cc2ccccc2)N1C(=O)Cn1cc(I)cn1
175 to 177	COCC1CN(c2ccc(C3CCN(Cc4ccccc4)CC3)cc2)C(=O)O1 (racemic)
178	O=C(Nc1ccc2cc(CN3CCCC3)cnc2c1F)c1ccc(-c2ccc(F)cc2)cc1
103 to 105	CCN(CC)c1ccc(C(C)=O)cc1S(N)(=O)=O
121 to 122	CC(=O)Nc1noc(C)c1Cl
110 to 112	CCOC(=O)CCN1CCC[C@H](NCc2ccccc2OC)[C@@H]1c1ccccc1 (relative stereo)
290 to 291	Cc1nc2c([nH]1)N(Cc1ccc(Cl)cc1)C1=NC(C)CN1C2=O (centres undefined)
156 to 157	CCOC(=O)C(C)(C)n1c(=O)[nH]c2ccc(C)cc2c1=O
106	COC(=O)Nc1ccc(OC(=O)OC)cc1I
284	Cc1nc(NC(=O)c2cnn3c(C(F)F)cc(-c4ccc(C(F)(F)F)cc4)nc23)sc1S(N)(=O)=O
240 to 242	COC(=O)C1=C(O)c2sc3ccccc3c2S(=O)(=O)N1
305 to 310	Cc1cc(C(C)(C)C)c(O)c(C)c1CC(=O)N1CCN(C(=O)Cc2c(C)cc(C(C)(C)C)c(O)c2C)CC1
141	Cn1nc(C(F)F)[nH]c1=O
102 to 104	CC1=CC(O)C(OC(=O)c2ccco2)C(C)(C)CC1=O (centres undefined)
56 to 58	CN(C)C(=O)CCC(=O)c1ccccc1
128 to 130	Cc1cc(I)ccc1OC=C1C=CC=CC1n1nnn(C)c1=O (centres undefined)

melting point [°C]	SMILES
91 to 95	CC(C)CCC(O)C(CC1CCCCC1)NC(=O)C(Cc1c[nH]cn1)N(C)C(=O)C(Cc1ccccc1)OC(=O)N1CCOCC1 (centres undefined)
203 to 205	CN(C)c1ccc(C2=NN(S(=O)(=O)c3ccc(I)cc3)CCC2)cc1
164 to 166	COc1ccc(-c2ccc(C(=O)Nc3ccc4cc(CN5CCCC5)cnc4c3C)c(F)c2)cc1
162 to 163	CCOc1ccc(-c2ncccc2S(=O)(=O)Nc2ncc(C)nc2OC)cc1
178	CS(=O)(=O)N1CCN(C(=O)Cl)C1=O
115 to 116	Cc1ccc(C2CCN(C(=O)CCC(=O)c3ccc4c(c3)CCNCC4)CC2)cc1
134 to 135	Cc1occc1C(=O)Nc1ccc(Cl)c(C2OCCO2)c1
168 to 170	CN1CC(c2ccc(S(C)(=O)=O)cc2)=C(c2cccc(Cl)c2)C1=O
239 to 242	CS(=O)(=O)NCCn1c(CO)nc2c(N)nc3cccnc3c21
227 to 233	Cc1cccc2c1N(CC(=O)C1CC1)C(=O)C(NC(=O)Nc1cccc(-c3nnn[nH]3)c1)N=C2C1CCCCC1 (centres undefined)
90 to 92	COc1ccnc(N2CCN(C(=O)c3ccsc3)CC2)n1
169	Cc1nnc(NCCC2CCCN2C)c2cc3ccccn3c12 (centres undefined)
189 to 190	O=C(O)C=C1SC(=NC2CCCCC2)N(C2CCCCC2)C1=O
141	O=C(Nc1ccc(N2CCOCC2=O)cc1)[C@H]1C[C@@H](O)CN1C(=O)Cc1ccc(Cl)cc1
202	CS(=O)(=O)c1c(CC(=O)O)n(Cc2ccc(Cl)cc2)c2ccc(F)cc12
134 to 138	O=C(NCC12CC3CC(CC(C3)C1)C2)c1cc(-c2ccccc2C(=O)O)ncc1Cl
190	COc1cccc(-c2nn3c(c2C(=O)O)-c2ccccc2CC3)c1
218	O=Cc1cc(Cl)cc(C(=O)O)c1O
148 to 150	COCC(=O)OC1(C(=O)COC(=O)C(C)C)CCC2C3CC(C)C4=CC(=O)C=CC4(C)C3C(O)CC21C (centres undefined)
